Experimental data: patent US20220305012A1, “L[…] TREATING SLEEP ISSUES” (EISAI R&D MANAGEMENT CO., LTD., priority 2019, published 2022)

Assays:
Type in all cases: in vivo, human
[1] = tested on: Subjects Having Insomnia Disorder; test: Example 2: subjective sleep onset latency (sSOL), sleep diary
Source text: As used herein, the term “subjective sleep onset latency”, abbreviated as “sSOL”, means the estimated number of minutes from the time that the subject attempted to sleep until sleep onset. In some embodiments, sSOL is derived from data entered in a subject's Sleep Diary.
In some embodiments, sleep diaries were used to assess sleep parameters reported by subjects (i.e., subjective assessments) including subjective sleep onset latency (sSOL), subjective sleep efficiency (sSE), subjective WASO (sWASO), and subjective total sleep time (sTST). Subjects were instructed to complete the Sleep Diary developed based on the consensus Sleep Diary as described in Carney et al., “The consensus sleep diary: standardizing prospective sleep self-monitoring,” Sleep 2012; 35(2):287-302. In some embodiments, the Sleep Diary was used to assess the subject's global perception of quality of sleep on the previous night with the following question: “How would you rate the quality of your sleep last night?” Subjects rated the quality of their sleep on a scale from 1 to 9, with 1 being extremely poor and 9 being extremely good. In some embodiments, the Sleep Diary was used to assess subjective ratings of morning sleepiness with the following question: “How alert/sleepy do you feel this morning?” Subjects rated their sleepiness/alertness level on a Likert scale from 1 to 9, with 1 being extremely sleepy and 9 being extremely alert.
sSOL—subjective sleep onset latency: estimated minutes from the time that the subject attempted to sleep until sleep onset.
The treatment period lasted for 31 days. Subjects were randomized in a double-blind manner and received placebo, a tablet containing 5 mg of lemborexant, a tablet containing 10 mg of lemborexant, or a tablet containing 6.25 mg of zolpidem ER.
Once home, the subject ingested study drug each night prior to bedtime and completed their sleep diary within 1 hour of waketime.

[2] = tested on: Subjects Having Insomnia Disorder; test: Example 2: Insomnia Severity Index Total Score (Items 1-7); details: for Insomnia Severity Total Score (Items 1-7), Change from Study Baseline, Mean (SD) / Insomnia Severity Total Score (Items 1-7), Change from Study Baseline, Median / Insomnia Severity Total Score (Items 1-7), Mean (SD) / Insomnia Severity Total Score (Items 1-7), Median: Day 31
Source text: As used herein, the term “Insomnia Severity Index”, abbreviated as “ISI”, is an index calculated using a 7-item, self-report questionnaire assessing the nature, severity, and impact of insomnia (see Bastien, C. H., et al. “Validation of the Insomnia Severity Index as an outcome measure for insomnia research.” Sleep Med. 2001; 2(4): 297-307). The questionnaire evaluates: (1) severity of sleep onset; (2) sleep maintenance; (3) early morning awakening problems; (4) sleep dissatisfaction; (5) interference caused by sleep difficulties with daytime functioning; (6) noticeability of sleep problems by others; and (7) distress caused by the sleep difficulties. A 5-point scale is used to rate each item (0=no problem to 4=very severe problem) yielding a total score from 0 to 28. Total ISI score (items (1)-(7)) and daytime functioning (items (4)-(7)) are analyzed separately.
On day 1 of the baseline period, subjects were admitted to the clinic and ISI, FSS, and EQ-5D-3L were administered. Blood and urine samples were collected for routine safety assessments, an ECG was performed, and vital signs and weight were assessed. The eC-SSRS was administered. Subjects who completed the baseline period and continued to meet the eligibility criteria were randomized and began the randomization phase.
On the evening of Day 30, subjects returned to the clinic. A pre-dose blood sample was collected and study drug was again administered within 5 minutes of the subject's mean habitual bedtime. A polysomnogram recording was initiated. The following morning (Day 31), postural stability and cognitive performance were assessed and a blood sample was obtained. The ISI, FSS, EQ-5D-3L and PGI-Insomnia were administered. Blood and urine samples were collected for routine safety assessment. An electrocardiogram was performed, and vital signs and weight were assessed. The eC-SSRS was then administered to the subject. At 1.5 hours after waketime, subjects rated their morning sleepiness level.

[3] = tested on: Subjects Having Insomnia Disorder; test: Example 2: treatment-emergent adverse events
Protocol: Between 14 and 18 days after completion of the treatment period, subjects returned to the clinic for the end of study visit. The T-BWSQ and eC-SSRS were administered and routine safety assessments were conducted.
A subject who prematurely discontinued taking study drug was to return to the clinic as soon as practicable after discontinuing study drug. If the subject discontinued due to an adverse event, the adverse event must have been followed to resolution or for 2 weeks, whichever came first. Additionally, subjects who discontinued early underwent a urine drug test.

[4] = tested on: Subjects Having Insomnia Disorder; test: Example 3: proportion of sWASO responders (pooled Examples 1 and 2)
Protocol: The data collected in studies described in Example 1 and Example 2 were pooled and the response of each subject was analyzed.

[5] = 5 mg, First 7 Nights of Treatment
[6] = 5 mg, Last 7 Nights of Treatment
[7] = 10 mg, First 7 Nights of Treatment
[8] = 10 mg, Last 7 Nights of Treatment
[9] = First 7 Days, Lemborexant 10 mg

Cc1ncc(OC[C@@]2(c3cccc(F)c3)C[C@H]2C(=O)Nc2ccc(F)cn2)c(C)n1 [Lemborexant, (1R,2S)-2-(((2,4-dimethylpyrimidin-5-yl)oxy)methyl)-2-(3-fluorophenyl)-N-(5-fluoropyridin-2-yl)cyclopropanecarboxamide]
sSOL Change from Study Baseline, Mean (SD) [1, 5]: −22.54 (32.812) minutes
sSOL Change from Study Baseline, Median [1, 5]: -14.86 min
sSOL, Mean (SD) [1, 5]: 42.39 (28.075) minutes
sSOL, Median [1, 5]: 29.64 min
sSOL Change from Study Baseline, Mean (SD) [1, 6]: −25.20 (34.854) minutes
sSOL Change from Study Baseline, Median [1, 6]: -18.54 min
sSOL, Mean (SD) [1, 6]: 38.80 (28.028) minutes
sSOL, Median [1, 6]: 30.36 min
sSOL, Mean (SD) ([1]; 5 mg, Study Baseline): 65.79 (43.530) minutes
sSOL, Median ([1]; 5 mg, Study Baseline): 58.57 min
sSOL Change from Study Baseline, Mean (SD) [1, 7]: −21.88 (29.269) minutes
sSOL Change from Study Baseline, Median [1, 7]: -15.00 min
sSOL, Mean (SD) [1, 7]: 38.64 (32.092) minutes
sSOL Change from Study Baseline, Mean (SD) [1, 8]: −24.79 (34.068) minutes
sSOL Change from Study Baseline, Median [1, 8]: -17.14 min
sSOL, Mean (SD) [1, 8]: 36.51 (31.059) minutes
sSOL, Median [1, 8]: 27.50 min
sSOL, Mean (SD) ([1]; 10 mg, Study Baseline): 60.88 (42.514) minutes
sSOL, Median ([1]; 10 mg, Study Baseline): 53.57 min
mean subjective sleep onset latency ([1]; all lemborexant treatment groups, relative to baseline, placebo and zolpidem treatment groups (Table 18)): reduced
Insomnia Severity Total Score (Items 1-7), Change from Study Baseline, Mean (SD) ([2]; Lemborexant 5 mg): −7.75 (5.474)
Insomnia Severity Total Score (Items 1-7), Change from Study Baseline, Median ([2]; Lemborexant 5 mg): −7.00
Insomnia Severity Total Score (Items 1-7), Mean (SD) ([2]; Lemborexant 5 mg): 11.24 (5.387)
Insomnia Severity Total Score (Items 1-7), Median ([2]; Lemborexant 5 mg): 11.00
Insomnia Severity Total Score (Items 1-7), Change from Study Baseline, Mean (SD) ([2]; Lemborexant 10 mg): −7.92 (5.894)
Insomnia Severity Total Score (Items 1-7), Change from Study Baseline, Median ([2]; Lemborexant 10 mg): −7.00
Insomnia Severity Total Score (Items 1-7), Mean (SD) ([2]; Lemborexant 10 mg): 11.11 (5.639)
Insomnia Severity Total Score (Items 1-7), Median ([2]; Lemborexant 10 mg): 11.00
mean insomnia severity index total score ([2]; lemborexant treatment groups, relative to baseline and the placebo treatment group (Table 22)): reduced
safety and tolerability (incidence of adverse events) ([3]; Example 2 (Table 29)): safe and well-tolerated
Congenital anomaly/birth defect ([3]; Lemborexant 5 mg (N = 266)): 0 n (%)
Deaths ([3]; Lemborexant 5 mg (N = 266)): 0 n (%)
Important medical events ([3]; Lemborexant 5 mg (N = 266)): 1 (0.3) n (%)
Life threatening ([3]; Lemborexant 5 mg (N = 266)): 0 n (%)
Other SAEs ([3]; Lemborexant 5 mg (N = 266)): 2 (0.8) n (%)
Persistent or significant disability or incapacity ([3]; Lemborexant 5 mg (N = 266)): 0 n (%)
Requires inpatient hospitalization or prolongation of existing hospitalization ([3]; Lemborexant 5 mg (N = 266)): 2 (0.8) n (%)
Serious TEAEs ([3]; Lemborexant 5 mg (N = 266)): 2 (0.8) n (%)
Severe TEAEs ([3]; Lemborexant 5 mg (N = 266)): 1 (0.4) n (%)
TEAEs ([3]; Lemborexant 5 mg (N = 266)): 74 (27.8) n (%)
TEAEs leading to study dose reduced ([3]; Lemborexant 5 mg (N = 266)): 0 n (%)
TEAEs leading to study drug dose adjustment ([3]; Lemborexant 5 mg (N = 266)): 3 (1.1) n (%)
TEAEs leading to study drug interrupted ([3]; Lemborexant 5 mg (N = 266)): 1 (0.4) n (%)
TEAEs leading to study drug withdrawal ([3]; Lemborexant 5 mg (N = 266)): 2 (0.8) n (%)
Treatment-related TEAEs ([3]; Lemborexant 5 mg (N = 266)): 30 (11.3) n (%)
Congenital anomaly/birth defect ([3]; Lemborexant 10 mg (N = 268)): 0 n (%)
Deaths ([3]; Lemborexant 10 mg (N = 268)): 0 n (%)
Important medical events ([3]; Lemborexant 10 mg (N = 268)): 0 n (%)
Life threatening ([3]; Lemborexant 10 mg (N = 268)): 0 n (%)
Other SAEs ([3]; Lemborexant 10 mg (N = 268)): 0 n (%)
Persistent or significant disability or incapacity ([3]; Lemborexant 10 mg (N = 268)): 0 n (%)
Requires inpatient hospitalization or prolongation of existing hospitalization ([3]; Lemborexant 10 mg (N = 268)): 0 n (%)
Serious TEAEs ([3]; Lemborexant 10 mg (N = 268)): 0 n (%)
Severe TEAEs ([3]; Lemborexant 10 mg (N = 268)): 2 (0.7) n (%)
TEAEs ([3]; Lemborexant 10 mg (N = 268)): 82 (30.6) n (%)
TEAEs leading to study dose reduced ([3]; Lemborexant 10 mg (N = 268)): 0 n (%)
TEAEs leading to study drug dose adjustment ([3]; Lemborexant 10 mg (N = 268)): 3 (1.1) n (%)
TEAEs leading to study drug interrupted ([3]; Lemborexant 10 mg (N = 268)): 0 n (%)
TEAEs leading to study drug withdrawal ([3]; Lemborexant 10 mg (N = 268)): 3 (1.1) n (%)
Treatment-related TEAEs ([3]; Lemborexant 10 mg (N = 268)): 39 (14.6) n (%)
Subjective Wake After Sleep Onset Responder, No, n (%) ([4]; First 7 Days, Lemborexant 5 mg): 420 (81.1) n (%)
Subjective Wake After Sleep Onset Responder, Yes, n (%) ([4]; First 7 Days, Lemborexant 5 mg): 91 (17.6) n (%)
Subjective Wake After Sleep Onset Responders, Difference of proportion vs. Placebo ([4]; First 7 Days, Lemborexant 5 mg): 6.15
Subjective Wake After Sleep Onset Responder, No, n (%) [4, 9]: 411 (79.5) n (%)
Subjective Wake After Sleep Onset Responder, Yes, n (%) [4, 9]: 100 (19.3) n (%)
Subjective Wake After Sleep Onset Responders, Difference of proportion vs. Placebo [4, 9]: 7.84
Subjective Wake After Sleep Onset Responder, No, n (%) ([4]; Month 1, Lemborexant 5 mg): 372 (71.8) n (%)
Subjective Wake After Sleep Onset Responder, Yes, n (%) ([4]; Month 1, Lemborexant 5 mg): 121 (23.4) n (%)
Subjective Wake After Sleep Onset Responders, Difference of proportion vs. Placebo ([4]; Month 1, Lemborexant 5 mg): 5.61
Subjective Wake After Sleep Onset Responder, No, n (%) ([4]; Month 1, Lemborexant 10 mg): 368 (71.2) n (%)
Subjective Wake After Sleep Onset Responder, Yes, n (%) ([4]; Month 1, Lemborexant 10 mg): 122 (23.6) n (%)
Subjective Wake After Sleep Onset Responders, Difference of proportion vs. Placebo ([4]; Month 1, Lemborexant 10 mg): 5.96
proportion of sWASO responders compared with placebo ([4]; both doses, first 7 days and end of month 1, responder: sWASO of 60 or less minutes and reduction of at least 10 minutes, baseline >60 minutes (Table 31)): statistically significantly superior
